Assay results taken from patent US9447100B2, “Substituted pyrazolo[1,5-A] pyrimidines as calcium receptor modulating agents” (Takeda Pharmaceutical Company Limited, priority 2002, dated 2016).
Where a name gives a salt, the structure may show the parent alone.

Compound `CCC(CC)(NC(=O)c1c(C)nn2c1NC(c1ccccc1F)CC2(C)C)c1ccccc1` (stereo not shown) (as salt: HCl) [Example 840, N-(1-ethyl-1-phenylpropyl)-5-(2-fluorophenyl)-2,7,7-trimethyl-4,5,6,7-tetrahydropyrazolo[1,5-a]pyrimidine-3-carboxamide] has a melting point of 160 to 162 °C.
For `CCC(CC)(NC(=O)c1cnn2c1NC(c1ccccc1)CC21CCCC1)c1ccc(C(F)(F)F)cc1` (stereo not shown) [Example 191, N-(1-ethyl-1-(4-(trifluoromethyl)phenyl)propyl)-5′-phenyl-5′,6′-dihydro-4′H-spiro[cyclopentane-1,7′-pyrazolo[1,5-a]pyrimidine]-3′-carboxamide], the melting point was 205 to 207 °C.
Work on `CCC(CC)(NC(=O)c1c(C)nn2c1N[C@H](c1ccccc1Cl)CC2(C)C)c1ccc(C)cc1` (as salt: HCl) [Example 1090, (5S)-5-(2-chlorophenyl)-N-(1-ethyl-1-(4-methylphenyl)propyl)-2,7,7-trimethyl-4,5,6,7-tetrahydropyrazolo[1,5-a]pyrimidine-3-carboxamide] yielded a melting point of 173 to 174 °C.
In the case of `CCOC(=O)c1cnn2c1NC(c1ccc(OC)cc1)CC2C(F)(F)F` (stereo not shown) [Example 3, ethyl 5-(4-methoxyphenyl)-7-(trifluoromethyl)-4,5,6,7-tetrahydropyrazolo[1,5-a]pyrimidine-3-carboxylate], the melting point is reported as 105 to 109 °C.
For `CCC1(NC(=O)c2cnn3c2NC(c2ccccc2)CC3(C)C)CCCCC1` (stereo not shown) [Example 431, N-(1-ethylcyclohexyl)-7,7-dimethyl-5-phenyl-4,5,6,7-tetrahydropyrazolo[1,5-a]pyrimidine-3-carboxamide], the melting point was 166 to 167 °C.
`COC(=O)C1(NC(=O)c2cnn3c2N[C@H](c2ccccc2)C[C@@H]3C(F)(F)F)CCCCC1` (stereo in doubt) [Example 367, methyl 1-(((5-phenyl-7-(trifluoromethyl)-4,5,6,7-tetrahydropyrazolo[1,5-a]pyrimidin-3-yl)carbonyl)amino)cyclohexane carboxylate] gave a melting point of 213 to 214 °C.
For `CCC1(CC)C[C@@H](OC)CN1C(=O)c1c(C)nn2c1N[C@@H](c1ccccc1)CC2(C)C` [Example 1099, (5R)-3-(((4R)-2,2-diethyl-4-methoxy-1-pyrralidinyl)carbanyl)-2,7,7-trimethyl-5-phenyl-4,5,6,7-tetrahydropyrazolo[1,5-a]pyrimidine], the melting point was 132 to 134 °C.
Work on `CCC1(CC)C[C@H](OCc2ccccc2)CN1C(=O)c1cnn2c1N[C@@H](c1ccccc1)CC2(C)C` [Example 1107, (5R)-3-(((4S)-4-(benzyloxy)-2,2-diethy-1-pyrrolidinyl)carbonyl)-7,7-dimethyl-5-phenyl-4,5,6,7-tetrahydropyrazolo[1,5-a]pyrimidine] yielded a melting point of 173 to 175 °C.
`CCC(CC)(NC(=O)c1c(C)nn2c1NC(c1ccccc1)CC2(C)C)c1ccccc1F` (stereo not shown) (as salt: HCl) [Example 843, N-(1-ethyl-1-(2-fluorophenyl)propyl)-2,7,7-trimethyl-5-phenyl-4,5,6,7-tetrahydropyrazolo[1,5-a]pyrimidine-3-carboxamide] showed a melting point of 180 to 182 °C.
`CCC(NC(=O)c1cnn2c1NC(c1ccccc1)CC2C(F)(F)F)c1ccccc1Br` (stereo not shown) [Example 401, N-(1-(2-bromophenyl)propyl)-5-phenyl-7-(trifluoromethyl)-4,5,6,7-tetrahydropyrazolo[1,5-a]pyrimidine-3-carboxamide] gave a melting point of 236 to 237 °C.
For `CCC1(CC)C[C@H](O)CN1C(=O)c1cnn2c1N[C@@H](c1ccccc1)CC2(C)C` [Example 1117, (3S)-1-(((5R)-7,7-dimethyl-5-phenyl-4,5,6,7-tetrahydropyrazolo[1,5-a]pyrimidin-3-yl)carbonyl)-5,5-diethyl-3-pyrrolidinol], the melting point was 249 to 251 °C.
With `COc1ccccc1C1CC(C(F)(F)F)n2ncc(C(=O)O)c2N1` (stereo not shown) [Example 30, 5-(2-methoxyphenyl)-7-(trifluoromethyl)-4,5,6,7-tetrahydropyrazolo[1,5-a]pyrimidine-3-carboxylic acid] the melting point was 189 to 190 °C.
Work on `CCC(CC)(NC(=O)c1c(C)nn2c1N[C@@H](c1ccccc1)CC2(C)C)c1ccc(C(=O)O)cc1` [Example 1076, (5R)-4-(1-ethyl-1-(((-2,7,7-trimethyl-5-phenyl-4,5,6,7-tetrahydropyrazolo[1,5-a]pyrimidin-3-yl)carbonyl)amino)propyl) benzoic acid] yielded a melting point of 234 to 236 °C.
With `CC1(C)CC(c2ccccc2)Nc2c(C(=O)N(Cc3ccccc3)Cc3ccccc3)cnn21` (stereo not shown) [Example 408, N,N-dibenzyl-7,7-dimethyl-5-phenyl-4,5,6,7-tetrahydropyrazolo[1,5-a]pyrimidine-3-carboxamide] the melting point was 206 to 207 °C.
`CCC(CC)(NC(=O)c1c(C)nn2c1NC(c1ccccc1)CC2(C)C)c1ccc(Br)cc1` (stereo not shown) (as salt: HCl) [Example 738, N-(1-(4-bromophenyl)-1-ethylpropyl)-2,7,7-trimethyl-5-phenyl-4,5,6,7-tetrahydropyrazolo[1,5-a]pyrimidine-3-carboxamide] gave a melting point of 185 to 187 °C.
Compound `CC(NC(=O)c1cnn2c1NC(c1ccc3ccccc3c1)CC2C(F)(F)F)C1C2CC3CC(C2)CC1C3` (stereo not shown) [Example 91, N-(1-(2-adamantyl)ethyl)-5-(2-naphthyl)-7-(trifluoromethyl)-4,5,6,7-tetrahydropyrazolo[1,5-a]pyrimidine-3-carboxamide] has a melting point of 94 to 95 °C.
`CCC(CC)(NC(=O)c1cnn2c1NC(c1ccccc1)CC2(C)C)c1ccc(Br)cc1` (stereo not shown) [Example 413, N-(1-(4-bromophenyl)-1-ethylpropyl)-7,7-dimethyl-5-phenyl-4,5,6,7-tetrahydropyrazolo[1,5-a]pyrimidine-3-carboxamide] showed a melting point of 129 to 130 °C.
For `CCC(CC)(NC(=O)c1c(C)nn2c1NC(c1ccc(F)cc1)CC2(C)C)c1ccc(C)cc1` (stereo not shown) (as salt: HCl) [Example 971, N-(1-ethyl-1-(4-methylphenyl)propyl)-5-(4-fluorophenyl)-2,7,7-trimethyl-4,5,6,7-tetrahydropyrazolo[1,5-a]pyrimidine-3-carboxamide], the melting point was 166 to 169 °C.
For `CCCc1ccc(C(CC)(CC)NC(=O)c2cnn3c2NC(c2ccccc2)CC3(C)C)cc1` (stereo not shown) [Example 706, N-(1-ethyl-1-(4-propylphenyl)propyl)-7,7-dimethyl-5-phenyl-4,5,6,7-tetrahydropyrazolo[1,5-a]pyrimidine-3-carboxamide], the melting point was 177 to 178 °C.
For `COc1cccc(C2CC(C)(C)n3nc(C)c(C(=O)O)c3N2)c1` (stereo not shown) [Example 947, 5-(3-methoxyphenyl)-2,7,7-trimethyl-4,5,6,7-tetrahydropyrazolo[1,5-a]pyrimidine-3-carboxylic acid], the melting point was 151 to 152 °C.
With `CCC1(NC(=O)c2cnn3c2NC(c2ccccc2)CC3(C)C)CCSCC1` (stereo not shown) [Example 575, N-(4-ethyltetrahydro-2H-thiopyran-4-yl)-7,7-dimethyl-5-phenyl-4,5,6,7-tetrahydropyrazolo[1,5-a]pyrimidine-3-carboxamide] the melting point was 97 to 98 °C.
Work on `CCC(CC)(NC(=O)c1c(C)nn2c1NC(c1ccccc1OC)CC2(C)C)c1ccc(C)cc1` (stereo not shown) (as salt: HCl) [Example 965, N-(1-ethyl-1-(4-methylphenyl)propyl)-5-(2-methoxyphenyl)-2,7,7-trimethyl-4,5,6,7-tetrahydropyrazolo[1,5-a]pyrimidine-3-carboxamide] yielded a melting point of 162 to 163 °C.
`CCC(CC)(NC(=O)c1c(C)nn2c1NC(c1cccc(C)c1)CC2(C)C)c1ccc(C)cc1` (stereo not shown) (as salt: HCl) [Example 974, N-(1-ethyl-1-(4-methylphenyl)propyl)-2,7,7-trimethyl-5-(3-methylphenyl)-4,5,6,7-tetrahydropyrazolo[1,5-a]pyrimidine-3-carboxamide] gave a melting point of 120 to 123 °C.
For `CCC(CC)(NC(=O)c1cnn2c1NC(c1ccccc1)CC2(C)C)C1CCCCC1` (stereo not shown) [Example 432, N-(1-cyclohexyl-1-ethylpropyl)-7,7-dimethyl-5-phenyl-4,5,6,7-tetrahydropyrazolo[1,5-a]pyrimidine-3-carboxamide], the melting point was 130 to 131 °C.
In the case of `CC1(C)CC(c2ccccc2Cl)Nc2c(C(=O)O)cnn21` (stereo not shown) [Example 940, 5-(2-chlorophenyl)-7,7-dimethyl-4,5,6,7-tetrahydropyrazolo[1,5-a]pyrimidine-3-carboxylic acid], the melting point is reported as 167 to 168 °C.
Work on `CCCC(CC)(CC)NC(=O)c1c(C)nn2c1N[C@@H](c1ccccc1)CC2(C)C` (as salt: HCl) [Example 1055, (5R)-N-(1,1-diethylbutyl)-2,7,7-trimethyl-5-phenyl-4,5,6,7-tetrahydropyrazolo[1,5-a]pyrimidine-3-carboxamide] yielded a melting point of 176 to 177 °C.
In the case of `CC1(C)CC(c2ccccc2)Nc2c(C(=O)N(Cc3ccc(C(F)(F)F)cc3)Cc3ccc(C(F)(F)F)cc3)cnn21` (stereo not shown) [Example 409, 7,7-dimethyl-5-phenyl-N,N-bis(4-(trifluoromethyl)benzyl)-4,5,6,7-tetrahydropyrazolo[1,5-a]pyrimidine-3-carboxamide], the melting point is reported as 164 to 165 °C.
`CCC1(CC)C[C@@H](OC)CN1C(=O)c1cnn2c1N[C@@H](c1ccccc1)CC2(C)C` [Example 1111, (5R)-3-(((4R)-2,2-diethyl-4-methoxy-1-pyrrolidinyl)carbonyl)-7,7-dimethyl-5-phenyl-4,5,6,7-tetrahydropyrazolo[1,5-a]pyrimidine] gave a melting point of 148 to 150 °C.
For `CCC(CC)(NC(=O)c1c(C)nn2c1N[C@@H](c1ccccc1)CC2(C)C)c1ccc(Cl)cc1` [Example 1042, (5R)-N-(1-(4-chlorophenyl)-1-ethylpropyl)-2,7,7-trimethyl-5-phenyl-4,5,6,7-tetrahydropyrazolo[1,5-a]pyrimidine-3-carboxamide], the melting point was 128 to 129 °C.
In the case of `CCC(CC)(NC(=O)c1c(C)nn2c1N[C@@H](c1ccccc1)CC2(C)C)c1ccc(Cl)c(C)c1` (as salt: HCl) [Example 1068, (5R)-N-(1-(4-chloro-3-methylphenyl)-1-ethylpropyl)-2,7,7-trimethyl-5-phenyl-4,5,6,7-tetrahydropyrazolo[1,5-a]pyrimidine-3-carboxamide], the melting point is reported as 150 to 151 °C.
With `CCC(CC)(NC(=O)c1c(C)nn2c1N[C@@H](c1ccccc1)CC2(C)C)c1ccc(C)c(Cl)c1` (as salt: HCl) [Example 1069, (5R)-N-(1-(3-chloro-4-methylphenyl)-1-ethylpropyl)-2,7,7-trimethyl-5-phenyl-4,5,6,7-tetrahydropyrazolo[1,5-a]pyrimidine-3-carboxamide] the melting point was 129 to 130 °C.
